≈ marks a conversion by molar mass, not a printed value.
Tests used:
[1] = Solubility of eplerenone in pure solubilizers at room temperature; assay type: physicochemical; conditions: organic solvent or mixture
Procedure: Preparation of a pharmaceutically acceptable parenteral eplerenone formulation is therefore made difficult by the fact that (a) the solubility of eplerenone in many otherwise parenterally acceptable solubilizers, even in such solubilizers in pure form, is very low, (b) eplerenone dose requirements are relatively high (e.g. about 50 mg/day or more), and (c) the concentration and/or total amount of many parenterally acceptable solubilizers which can be safely parenterally delivered to a subject is relatively low.

[2] = Storage stability of eplerenone solution formulations SF-2 to SF-5 at different pH, HPLC (Example 2); assay type: physicochemical; conditions: storage at various temperatures and for various time periods
Source text: The pH of each formulation was adjusted as indicated.
Aliquots of each solution formulation were stored at four different temperatures for a period of 12 weeks. Degradation of eplerenone was monitored via high performance liquid chromatography (HPLC) throughout storage.
Cells in Table 3 which have the symbol “--” therein indicate that no stability data was collected for that particular time and storage temperature.

COC(=O)[C@@H]1CC2=CC(=O)CC[C@]2(C)[C@@]23O[C@@H]2C[C@@]2(C)[C@@H](CC[C@@]24CCC(=O)O4)[C@H]13 [eplerenone, methyl hydrogen 9,11α-epoxy-17α-hydroxy-3-oxopregn-4-ene-7α,21-dicarboxylate, γ-lactone]
solubility ([1]; pure glycerin, room temperature): < 1600 µg/mL | solubility ([1]; pure polyethylene glycol 400, room temperature): 3300 to 5700 µg/mL (≈ 7.96 to 13.8 mM) | solubility ([1]; pure propylene glycol, room temperature): < 300 µg/mL | stability of eplerenone in solution by pH (in words) [2]: more stable in a solution maintained at a pH of 5 than at a pH of 2, 7 or 9

From patent US20050080046A1, “Storage stable eplerenone formulation” (priority 2002, published 2005)
